Molecules are shown by their SMILES. pIC50: −log10 of the molar value.

Common to all, as to assay: Tautomerase Activity Assay
Assay [1] concerns the target T1, Macrophage migration inhibitory factor-like protein (Plasmodium yoelii yoelii, UniProt Q1HEA2).
T1 sequence (Q1HEA2 whole entry): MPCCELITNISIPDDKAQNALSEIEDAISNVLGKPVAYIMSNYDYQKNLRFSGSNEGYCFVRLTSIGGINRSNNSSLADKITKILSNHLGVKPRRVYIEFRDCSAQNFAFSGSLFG
The source says:
(§1) The tautomerase activity of MIFs was monitored by following the tautomerization of L-dopachrome methyl ester by the recombinant MIFs in the presence or absence of increasing concentrations of all six limonoids extracted from neem.

For assay [2], the target named is T2, Macrophage migration inhibitory factor (Homo sapiens, UniProt P14174).
T2 sequence (P14174 whole entry): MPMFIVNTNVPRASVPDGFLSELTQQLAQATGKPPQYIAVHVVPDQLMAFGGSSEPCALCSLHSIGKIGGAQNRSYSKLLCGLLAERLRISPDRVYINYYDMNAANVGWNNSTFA
From the text: as §1

The target in assay [3] is T3, Macrophage migration inhibitory factor (Plasmodium falciparum (isolate 3D7), UniProt Q8I5C5).
T3 sequence (Q8I5C5 whole entry): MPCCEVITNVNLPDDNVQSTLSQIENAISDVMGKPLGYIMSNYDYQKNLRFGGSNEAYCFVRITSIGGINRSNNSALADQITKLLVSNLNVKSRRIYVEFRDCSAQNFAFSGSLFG
From the text: as §1

Consider `CC(=O)O[C@@H]1C[C@H]2C(C)(C)C(=O)C=C[C@]2(C)[C@H]2CC[C@]3(C)C(=CC(=O)[C@H]3c3ccoc3)[C@@]21C` [Azadiradione], for which the pIC50 (as a rule, the IC50 on a negative log10 scale, so that one unit is a factor of ten) in assay [1] was 4.37; in assay [2] it was 4.45; in assay [3], 4.34.
For the compound `CC(=O)O[C@@H]1C[C@H]2C(C)(C)C(=O)C=C[C@]2(C)[C@H]2CC[C@@]3(C)[C@H](c4ccoc4)C(=O)[C@H]4O[C@]43[C@@]21C` [Epoxyazadiradione], the results for the pIC50 in assay [1] and in assay [3] were 5.01 and 5.02, respectively.
Take `COC(=O)C[C@H]1[C@]2(C)C3=C(C)[C@H](c4ccoc4)C[C@H]3O[C@@H]2[C@H](OC(C)=O)[C@@H]2[C@]1(C)C(=O)C=C[C@@]2(C)C(=O)OC` [Nimbin]: the pIC50 in assay [1] was 4.65; in assay [2], 4.76; in assay [3] it was 4.65.
`C/C=C(\C)C(=O)O[C@H]1C[C@@H](OC(C)=O)[C@@]2(C)CO[C@H]3[C@H]4O[C@@H]5C[C@@H](c6ccoc6)C(C)=C5[C@@]4(C)[C@H](CC(=O)OC)[C@]1(C)[C@@H]32` [Salannin]: the pIC50 in assay [1] is 4.02; in assay [2] it was 4.07; in assay [3] it was 4.05.

Values taken from BindingDB's records for doi:10.1074/jbc.M112.341321 (Council of Scientific and Industrial Research (Csir) Indian …, 2012).
